# Assay results from the Deep4Chem optical property database.
# Assay: solvent given as SMILES
# Settings: in C1CCCCC1
row,Structure (SMILES),emission maximum
1,c1cc2c3c(c1)OCCCCCCCOc1cccc(c1-c1c4ccccc4c-3c3ccccc13)OCCCCCCCO2,427 nm
2,CCCCc1cc2cccc3cc(CCCC)c4cc(-c5cc6[b-]7c(c5)c(CCCC)cc5cccc(cc6CCCC)[n+]75)cc1[b-]4[n+]23,550 nm

# Further lines, results first:
row,emission maximum,Structure (SMILES)
1,602 nm,Cc1ccccc1C1=C2C=c3c(oc4ccc(C(C)(C)C)cc34)=[N+]2[B-](F)(F)n2c1cc1c3cc(C(C)(C)C)ccc3oc12
2,416 nm,C(#Cc1ccccc1)C1=Cc2ccc3ccccc3c2NB1c1ccccc1
3,421 nm,COc1c2ccccc2c(OC)c2c1c1cc(C)ccc1n2C
4,486 nm,Cn1nc(-c2ccccc2)c2nc3cc(F)ccc3nc21
5,429 nm,c1cc2c3c(c1)OCCCCCCOc1cccc(c1-c1c4ccccc4c-3c3ccccc13)OCCCCCCO2
6,408 nm,Cc1cc2c(o1)c(Br)cc1c(C)cc(=O)oc12

# Same assay, conditions: in C1CCOC1
row,Structure (SMILES),emission maximum
1,O=C(O)c1ccc2ccc3cccc4ccc1c2c34,387 nm
2,O=Cc1ccc(N(c2ccc(C=O)cc2)c2ccc(-c3ccc4c(c3)C(=O)c3ccccc3C4=O)cc2)cc1,662 nm
3,N#Cc1c(N2CCCCC2)cc(-c2ccc3ccc4cccc5ccc2c3c45)c2c1Cc1ccccc1-2,481 nm
4,CN(C)c1ccc2c(c1)C(=O)NC2=O,459 nm
5,COc1ccc(C2=C(c3ccc(OC)cc3)C(c3ccc(OC)cc3)=[N+]3C2=C(c2ccc(OC)cc2)c2c(-c4ccc(OC)cc4)c(-c4ccc(OC)cc4)c(-c4ccc(OC)cc4)n2[B-]3(F)F)cc1,640 nm
6,C(=C\c1cc2ccccc2c2ccccc12)/c1cc2ccccc2c2ccccc12,416 nm

# Now from value to compound:
row,emission maximum,Structure (SMILES)
1,535 nm,C(=C\c1cnc2ccccc2n1)/c1ccc(N(c2ccccc2)c2ccccc2)cc1
2,446 nm,C(=C(c1ccccc1)c1ccccc1)c1ccc(-c2cc(-c3ccc(C=C(c4ccccc4)c4ccccc4)cc3)cc(-c3ccc(C=C(c4ccccc4)c4ccccc4)cc3)c2)cc1
3,520 nm,Cn1nc(-c2ccccc2)c2nc3cc(F)ccc3nc21
4,581 nm,CC(C)(C)c1ccc(C2=C(c3ccc(N4c5ccccc5C(C)(C)c5ccccc54)cc3)S(=O)(=O)c3c2sc(-c2ccc(N4c5ccccc5C(C)(C)c5ccccc54)cc2)c3-c2ccc(C(C)(C)C)cc2)cc1
5,389.5 nm,C#Cn1c(-c2cc(-c3nc4ccc(C)cc4n3C#C)cc(-c3nc4ccc(C)cc4n3C#C)c2)nc2ccc(C)cc21

# Same assay, conditions: in C1COCCO1
row,Structure (SMILES),emission maximum
1,CN(C)c1ccc2c(c1)C(=O)NC2=O,457 nm
2,CCN(CC)c1ccc2cc(/C=C/C3=C4CC/C(=C\c5cc6ccc(N(CC)CC)cc6oc5=O)C4=[O+][B-](F)(F)O3)c(=O)oc2c1,675 nm
3,Cc1cc2c(o1)c(Br)cc1c(C)cc(=O)oc12,418 nm

# Same assay, conditions: in CC1CCCO1
row,emission maximum,Structure (SMILES)
1,333 nm,c1ccc2c(c1)-c1ccccc1C21c2ccccc2-c2ncccc21

# Same assay, conditions: in CC#N
row,Structure (SMILES),emission maximum
1,O=C(O)c1ccc2ccc3cccc4ccc1c2c34,389 nm
2,CN(C)c1ccc2c(c1)C(=O)NC2=O,490 nm
3,CCN(CC)c1ccc2cc(/C=C/C3=C4CC/C(=C\c5cc6ccc(N(CC)CC)cc6oc5=O)C4=[O+][B-](F)(F)O3)c(=O)oc2c1,758 nm
4,O=P1(c2ccccc2)C2=C(c3ccccc31)[Si](c1ccccc1)(c1ccccc1)c1cc(N(c3ccccc3)c3ccccc3)ccc12 (centres undefined),629 nm
5,COC(=O)CC1(C(=O)O)Oc2c(c(C(C)=O)c3c(c2C(C)=O)OCO3)O1,547 nm

# Other lines, results leading:
row,emission maximum,Structure (SMILES)
1,476 nm,CCOC(=O)c1ccc(O)c(-c2[nH]c(=O)n3c2-c2ccccc2C3=O)c1
2,596 nm,C(=C\c1cnc2ccccc2n1)/c1ccc(N(c2ccccc2)c2ccccc2)cc1
3,431 nm,COc1c2ccccc2c(OC)c2c1c1cc(C)ccc1n2C
4,535 nm,Cn1nc(-c2ccccc2)c2nc3cc(F)ccc3nc21
5,594 nm,Nc1ccc2c(c1)C(=O)c1ccc(N)cc1C2=O
6,606 nm,CCN(CC)c1ccc(/C=N/C(C#N)=C(C#N)\N=C\c2ccc(N(CC)CC)cc2O)c(O)c1
7,334 nm,COC(=O)C[C@H](Cc1c[nH]c2ccccc12)NC(=O)[C@H](CC(=O)N[C@@H](CC1=CCc2ccccc21)C(=O)OC)NC(=O)[C@H](Cc1c[nH]c2ccccc12)NC(=O)OC(C)(C)C
8,605 nm,N#CSC1=CC2=C(c3ccccc3)c3ccc(N4CCOCC4)n3[B-](F)(F)[N+]2=C1N1CCOCC1
9,435 nm,Cc1cc2c(o1)c(Br)cc1c(C)cc(=O)oc12

# Same assay, conditions: in CC(C)(C)O
row,Structure (SMILES),emission maximum
1,CN(C)c1ccc2c(c1)C(=O)NC2=O,516 nm

# Same assay, conditions: in CC(C)=O
row,Structure (SMILES),emission maximum
1,CN(C)c1ccc2c(c1)C(=O)NC2=O,483 nm
2,CCN(CC)c1ccc2cc(/C=C/C3=C4CC/C(=C\c5cc6ccc(N(CC)CC)cc6oc5=O)C4=[O+][B-](F)(F)O3)c(=O)oc2c1,734 nm

# Same assay, conditions: in CC(C)O
row,Structure (SMILES),emission maximum
1,Nc1ccc2c(c1)C(=O)c1ccc(N)cc1C2=O,616 nm
2,CN(C)c1ccc2c(c1)C(=O)NC2=O,523 nm

# Same assay, conditions: in CCCCCC
row,Structure (SMILES),emission maximum
1,O=C(O)c1ccc2ccc3cccc4ccc1c2c34,387 nm
2,O=Cc1ccc(N(c2ccc(C=O)cc2)c2ccc(-c3ccc4c(c3)C(=O)c3ccccc3C4=O)cc2)cc1,493 nm
3,N#CSC1=CC2=C(c3ccccc3)c3ccc(N4CCOCC4)n3[B-](F)(F)[N+]2=C1N1CCOCC1,599 nm

# Same assay, conditions: in CCCCCCC
row,emission maximum,Structure (SMILES)
1,461 nm,C(=C\c1cnc2ccccc2n1)/c1ccc(N(c2ccccc2)c2ccccc2)cc1

# Same assay, conditions: in CCO
row,emission maximum,Structure (SMILES)
1,616 nm,Nc1ccc2c(c1)C(=O)c1ccc(N)cc1C2=O
2,439 nm,Cc1cc2c(o1)c(Br)cc1c(C)cc(=O)oc12

row,Structure (SMILES),emission maximum
1,O=C(O)c1ccc2ccc3cccc4ccc1c2c34,380 nm

# Same assay, conditions: in CCOC(C)=O
row,Structure (SMILES),emission maximum
1,O=Cc1ccc(N(c2ccc(C=O)cc2)c2ccc(-c3ccc4c(c3)C(=O)c3ccccc3C4=O)cc2)cc1,654 nm
2,CCN(CC)c1ccc2cc(/C=C/C3=C4CC/C(=C\c5cc6ccc(N(CC)CC)cc6oc5=O)C4=[O+][B-](F)(F)O3)c(=O)oc2c1,693 nm

# Results, then the compound that gave them:
row,emission maximum,Structure (SMILES)
1,602 nm,Cc1ccccc1C1=C2C=c3c(oc4ccc(C(C)(C)C)cc34)=[N+]2[B-](F)(F)n2c1cc1c3cc(C(C)(C)C)ccc3oc12
2,547.6 nm,Nc1ccc2c(c1)C(=O)c1ccc(N)cc1C2=O
3,330 nm,COC(=O)C[C@H](Cc1c[nH]c2ccccc12)NC(=O)[C@H](CC(=O)N[C@@H](CC1=CCc2ccccc21)C(=O)OC)NC(=O)[C@H](Cc1c[nH]c2ccccc12)NC(=O)OC(C)(C)C
4,604 nm,N#CSC1=CC2=C(c3ccccc3)c3ccc(N4CCOCC4)n3[B-](F)(F)[N+]2=C1N1CCOCC1

# Same assay, conditions: in CCOCC
row,Structure (SMILES),emission maximum
1,O=Cc1ccc(N(c2ccc(C=O)cc2)c2ccc(-c3ccc4c(c3)C(=O)c3ccccc3C4=O)cc2)cc1,585 nm
2,CN(C)c1ccc2c(c1)C(=O)NC2=O,440 nm

# Same assay, conditions: in CN(C)C=O
row,Structure (SMILES),emission maximum
1,O=C(O)c1ccc2ccc3cccc4ccc1c2c34,388 nm
2,O=C([O-])c1c2ccccc2c(C(=O)[O-])c2ccccc12,410 nm
